For assay [1], the system named is murine, FLT3L-differentiated DC. Put plainly: Cytokine secretion by murine FLT3L-differentiated BMDC (ELISA). The class given is cell-based, mouse. The procedure: Murine FLT3L-differentiated, bone marrow-derived DC (BMDC) generation. Leg femur and tibia were removed from mice, cut with scissors and flushed into sterile tubes. Bone marrow suspension was treated with ACK for 1 minute, then passed through a 40 um cell strainer. Cells were counted and resuspended in media consisting of complete IMDM containing 10% FBS, penicillin and streptomycin, and supplements of L-glutamine and sodium pyruvate (I10). Cells were then plated at 5E6 bone marrow cells per well in a P12 plate. Recombinant mouse FLT3L (Miltenyi) was added to cultures at 200 ng/mL. Differentiated cells were used for subsequent assays on day 9. The efficiency of differentiation was monitored by flow cytometry using BD Symphony A3, and CD11c+MHC-II+ cells were routinely above 80% of living cells. For each experiment, five mice were used to collect BM and to generate DCs.
Murine FLT3L-differentiated BMDC (FLT3L-BMDC) hyperactivation. BMDCs were washed with PBS and re-plated in FLT3L-containing 110 at a concentration of 1.5×10^5 cells/well. Stimuli were added to cultures at indicated concentrations for a final volume of 200 uL/well. Twenty-four hours post-stimulation, cell culture supernatant was collected after centrifugation and stored at −20° C. to measure cytokine secretion. IL-1b, IL-6, IL-12p40, and TNF-alpha ELISA were performed using eBioscience Ready-SET-Go! (now ThermoFisher) ELISA kits according to the manufacturer's protocols. Cell viability was measured using Promega's Cell Titer-Glo reagent kits.
Background: In an ELISA, binding on a coated surface is turned into a signal by an enzyme label.

In assay [2] the test system is human memory CD4+ T cells. Put plainly: Human moDC coculture with memory CD4 T cells: cytokine secretion. Type of assay: cell-based. As to conditions: moDC treated with R848 + lipid; limiting anti-CD3; 2 days after T cell addition.
From the text: Human moDC coculture with memory CD4 T cells. Human monocytes were isolated from leukopheresis products using Miltenyi StraightFrom LeukoPak CD14 microbeads as directed by manufacturer. Custom PBMC isolation microbead kits from Miltenyi were used to separate PBMCs from red blood cells and granulocytes from the same blood products. After PBMC purification, Miltenyi human memory CD4+ T cell isolation kits were used to negatively select the CD45RO+ fraction. Cells were cryogenically stored until ready for use in experiments.
Human monocytes were differentiated into dendritic cells as previously described using recombinant human GM-CSF and IL-4 for 6 days. moDCs were plated in R10 media at 5E4 cells/well into 96-well U-bottom microplates for hyperactivations. […] T cell stimulating anti-CD3 antibody was added into the culture (with or without blocking anti-IL-1beta antibody) prior to T cell addition. Autologous frozen memory CD4 T cells were thawed, resuspended in R10 media and added at 2.5×10^5 cells/well (ratio 1:5, DC:T cell). After two days incubation, cell culture supernatant was collected and used for measuring cytokine secretion. Commercially available kits such as Biolegend LegendPlex kits were used as directed by manufacturer's protocol to quantify cytokines of interest.
Four donors were tested with each experimental condition tested in triplicate. […]
Another assay deals with human PBMCs. Briefly: Cytokine secretion (IL-1β, IFNγ, TNFα) by human PBMCs. The class given is cell-based. The procedure: Isolation of PBMCs from Whole Blood. PBMCs were isolated from whole blood using density gradient centrifugation with Ficoll-Paque PLUS (Cytivia). Whole blood was diluted 1:1 with PBS, layered on top of Ficoll-Paque PLUS and centrifuged at 1000×g for 30 minutes at room temperature. PBMCs were collected, washed twice in PBS, and incubated with Ack lysis buffer (Lonza) to remove any remaining red blood cells.
Cell Culture and Stimulation. […] Cells were plated at 1×10^5 (canine cells) or 1×10^6 (human cells) per well in 96-well flat bottom tissue culture plates. Lyophilized Vaccigrade R848 (Invivogen) was reconstituted and diluted according to manufacturer's recommendations and added to cells at a final concentration of 1 μg/mL.
Quantification of Cytokine Secretion. IL-1β secretion from human PBMCs was assessed using one of the following kits: ELISA MAX Deluxe Set Human IL-1β kit (Biolegend), Invitrogen Human IL-1β kit, or the Lumit™ Human IL-1β Immunoassay (Promega). IFNγ secretion from human PBMCs was assessed using the ELISA MAX Deluxe Set Human IFNγ (Biolegend) and TNFα secretion from human PBMCs was assessed using the Human TNFα Uncoated ELISA kit (Invitrogen). ELISAs were performed according to manufacturer's instructions with the following modifications: i) total sample+buffer volume for incubation was reduced from 100 μL to 50 μL; ii) the top standard was prepared at […], with two-fold dilutions to […]; and iii) sample incubation was completed overnight at 4 C on an orbital shaker. Lumit™ assays were performed according to manufacturer's instructions. IL-1β secretion from canine PBMCs was assessed using the Canine IL-1β/IL-1F2 DuoSet ELISA (R&D) according to manufacturer's instructions with the following modifications: i) total sample+buffer volume for incubation was reduced from 100 μL to 50 μL; ii) sample incubation was completed overnight at 4° C. on an orbital shaker. For all ELISAs, absorbance was measured at 450 nm, with a 570 nm correction, using a Spectramax M5e plate reader (Molecular Devices). For Lumit™ assays, luminescence was measured on all wavelengths using a Spectramax M5e plate reader (Molecular Devices) with an integration time of 500 ms. To determine cytokine concentrations in supernatants, sample concentrations were interpolated using a standard curve via 4PL analysis on GraphPad Prism 9 (GraphPad Software). The interpolated results of samples were then adjusted for any dilutions made to the supernatant.

Another assay relates to non-human primate PBMCs. Put plainly: Cytokine secretion by non-human primate PBMCs (LegendPlex). Type of assay: cell-based, cynomolgus macaques. The procedure: Non-human primate PBMC hyperactivation. Whole blood from cynomolgus macaques was diluted with an equal volume of PBS. A solution of 90% Ficoll-Paque PLUS and 10% RPMI was made, and diluted whole blood was overlayed on top of the diluted Ficoll. Cells were centrifuged at 1000 rcf for 30 minutes at room temperature with no brakes. The buffy coat layer was collected and washed twice with PBS. If red blood cell contamination was present, cells were incubated in ACK lysis buffer for 2 minutes before being washed with PBS to remove lysed red blood cells.
Isolated PBMC were plated at 1×10^6 cells/well and cultured with or without hyperactivating stimuli. After 2 days incubation, cells were assessed for viability, and cell culture supernatant was used to measure cytokine output. Commercially available kits such as Biolegend LegendPlex kits were used as directed by manufacturer's protocol to quantify cytokines of interest.
PBMC were obtained from 13 cynomolgus macaques. Each activation condition was tested in triplicate, and the mean value of the triplicate is graphed for the animal sample. Repeated measures one-way ANOVA was used to test for statistical significance followed by Dunnett's multiple comparisons test.

The mark [3] stands for this setting: R848 + 41 uM lipid in PBS or KP407, 24 h.
Setting [4] is: lipid combined with R848, 2 days.
The mark [5] stands for this setting: 82.5 uM lipid + R848 vs R848 alone, 2 days.

The text below walks through data of patent US20240197869A1, “HYPERACTIVATORS OF MAMMALIAN DENDRITIC CELLS” (Corner Therapeutics, Inc., priority 2021, published 2024).

The structures appear in SMILES notation. “Also recorded” adds a separate entry of the source.

On to `CCCCCCCCCCCCCCCCCCCCCC(=O)OC[C@@H](O)COP(=O)([O-])OCC[N+](C)(C)C` [22:0 LYSO PC, 1-behenoyl-2-hydroxy-sn-glycero-3-phosphocholine], for which the “IL-1beta secretion (in words)” value in assay [1] (22:0 Lyso PC without R848) is given as “failed to induce IL-1beta secretion”. In assay [1] (setting [3]), the “IL-6 secretion (in words)” value is “high TNF-alpha and IL-6 secretion”; the “TNF-alpha secretion (in words)” value is “high TNF-alpha and IL-6 secretion”. For the same molecule, the “TNF-alpha secretion (in words)” value in assay [1] (R848 + lipid in KP407) is on record as “small boost in TNF-alpha secretion”. In addition, the “lipid concentration superior in supporting IL-1beta secretion while retaining cell viability” value in assay [1] (formulated in KP407 + R848) stood at 41 µM. Further, in assay [1] (lipid formulated in 5% KP407 + R848 1 ug/mL, 24 h), the “IL-1beta secretion (in words)” value is listed as “induced IL-1beta secretion in a dose dependent manner”. The “IL-1beta secretion (in words)” value in assay [1] (lipid resuspended in PBS, different concentrations, + R848 1 ug/mL, 24 h) is “unable to induce IL-1beta secretion”. The “IFN-gamma (Th1 response) from cocultured memory CD4 T cells (in words)” value in assay [2] is given as “significantly stronger Th1 response”. For the same molecule, the “IL-1β secretion (in words)” value in the assay with human PBMCs (lipid 82.5 μM combined with R848 1 μg/mL, 2 days) is listed as “elevated; also recorded: comparable or higher”. In the assay with human PBMCs (setting [4]), the “IFNγ secretion, fold change per donor relative to R848 alone (in words)” value is listed as “highest fold change per donor; also recorded: comparable or higher” and the “TNFα secretion, fold change per donor relative to R848 alone (in words)” value is given as “highest fold change per donor; also recorded: comparable or higher”. Further, the “cytokine fold changes relative to R848 alone (in words)” value with non-human primate PBMCs (41.3 uM lipid + R848) is given as “not as markedly increased”. The “IL-1beta output (in words)” value in the assay on non-human primate PBMCs (82.5 uM lipid + R848 1 μg/mL vs R848 alone, 2 days) is reported as “increased the IL-1beta output”. Also, in the assay with non-human primate PBMCs (setting [5]), the “IFN-beta secretion (in words)” value was “increased”, the “IFN-gamma secretion (in words)” value is “significantly increased”, the “IL-8 secretion (in words)” value was “increased” and the “IL-17a secretion (in words)” value is listed as “increased”. The “IL-23 secretion (in words)” value with non-human primate PBMCs (setting [5]) is on record as “increased”.
